Values of other authors as cited in patent US5874549A, “Acid-cleavable compound” (NeoRx Corporation, priority 1993, dated 1999).

Conditions: relative to Cpd 1 = 1

Compound | Relative Rate (hydrolysis of the amide group)
CNC(=O)/C=C\C(=O)O [Cpd 1] | 1
CNC(=O)/C=C(/C)C(=O)O [Cpd 2] | 31.2
CC/C(=C/C(=O)NC)C(=O)O [Cpd 3] | 32.8
CNC(=O)/C=C(\C(=O)O)C(C)C [Cpd 4] | 44.5
CNC(=O)/C=C(\C(=O)O)C(C)(C)C [Cpd 5] | 68.0
CCCNC(=O)/C(C)=C(/C)C(=O)O [Cpd 6] | 2.35 × 10^4
CNC(=O)C1=C(C(=O)O)CCCC1 [Cpd 7] | 540
CNC(=O)C1=C(C(=O)O)CCC1 [Cpd 8] | 4.2 × 10^-5
CNC(=O)C1=C(C(=O)O)CC1 [Cpd 9] | 4.2 × 10^-6
CNC(=O)c1ccccc1C(=O)O [Cpd 10] | 0.72
CC(C)NC(=O)/C=C\C(=O)O [Cpd 11] | 0.7
CC(C)(C)NC(=O)/C=C\C(=O)O [Cpd 12] | 2.6
O=C(O)/C=C\C(=O)Nc1ccccc1 [Cpd 13] | 4.5
CN(C)C(=O)/C=C\C(=O)O [Cpd 14] | 42.7
C=CC(=O)NC [N-methyl acrylamide] | ~1.4 × 10^-7
